Laboratory results as given in patent US20240270801A1, “EPITOPE PEPTIDE OF HUMAN ALPHA-SYNUCLEIN AND PHARMACEUTICAL COMPOSITION INCLUDING SAID PEPTIDE” (Sumitomo Pharma Co., Ltd., priority 2021, published 2024).
Non-standard residues stand in square brackets, D forms with d. No end group written: not given here. Ahx = NCCCCCC(=O)O

How the values were obtained:
human αSyn = assay: Antibody-inducing ability in mice: ELISA antibody titer of immune serum with respect to human αSyn; format: in vivo, mouse; parameters: key to Antibody titer with respect to human αSyn, relative to control: log titer relative to control conjugate (control = 1); conditions: for Antibody titer with respect to human αSyn (N = 4 − 6, mean ± standard deviation): Example 2, serum 2 weeks after second administration; for Antibody titer with respect to human αSyn, relative to control: mice; for Antibody titer compared with control conjugate (in words): Example 9, mice, human αSyn and aggregated human αSyn, control AJ-p150 or AJ-p54
Protocol: (§1) Using the various AJ peptide-human αSyn peptide conjugates produced in Example 1, an antibody-inducing ability with respect to human αSyn in mice was evaluated. The various AJ-human αSyn peptide conjugates (250 μg/mouse) or KLH-DMPVDPDN (25 μg/mouse) in physiological saline were intramuscularly administered to balb/c mice (females, 6 weeks old, CLEA Japan, Inc.) twice at a 2-week interval for immunization using aluminum hydroxide (Alum) (InvivoGen, 50 μg/mouse) as an adjuvant. As a negative control, physiological saline (100 μL/mouse) comprising the same amount of aluminum hydroxide was administered twice. Two weeks after the second administration, serum was recovered to evaluate the antibody titer with respect to human αSyn by ELISA.
ELISA was performed by the following method. 96-well plates were coated with human αSyn (Sigma) at 0.2 μg/well. After washing with PBST (Phosphate Buffered Saline comprising 0.05% Tween) once, blocking was performed with 3% skim milk (FUJIFILM Wako Pure Chemical Corporation). After washing with PBST three times, diluted serum was added to cause a reaction at room temperature for 1 hour. Furthermore, after washing with PBST three times, Goat anti-mouse IgG-HRP (abcam) was added to cause a reaction at room temperature for 1 hour. After washing with PBST three times, SureBlue TMB Microwell Peroxidase Substrate (KPL) was added to cause a reaction at room temperature for 10 minutes while light shielding. An equal volume of a TMB Stop Solution (KPL) was added to stop the reaction, and the absorbance at 450 nm was measured. ELISA with respect to aggregated human αSyn was performed by coating with the aggregated human αSyn (Stress Marq) at 15 ng/well instead of human αSyn in the above-mentioned method. […]
The antibody-inducing ability of the produced various human αSyn peptide conjugates with respect to human αSyn and aggregated human αSyn in the mice was evaluated by the method described in Example 2 using the antibody titers with respect to human αSyn and aggregated human αSyn of the mouse immune serum. […] In Table 6, the antibody titer of AJ-p242, AJ-p244, AJ-p347, or AJ-p361 is shown with the antibody titer of AJ-p150 as a control being 1 (logarithm). In addition, the antibody titers of AJ-p229, AJ-p237, and AJ-p298 are shown with the antibody titer of AJ-p54 as a control being 1 (logarithm). […]

aggregated human αSyn = assay: Antibody-inducing ability in mice: ELISA antibody titer of immune serum with respect to aggregated human αSyn; format: in vivo, mouse; conditions: for Antibody titer with respect to aggregated human αSyn (N = 4 − 6, mean ± standard deviation): Example 2, serum 2 weeks after second administration; for Antibody titer with respect to aggregated human αSyn, relative to control: mice
Protocol: as §1
ELISA was performed by the following method. 96-well plates were coated with human αSyn (Sigma) at 0.2 μg/well. After washing with PBST (Phosphate Buffered Saline comprising 0.05% Tween) once, blocking was performed with 3% skim milk (FUJIFILM Wako Pure Chemical Corporation). After washing with PBST three times, diluted serum was added to cause a reaction at room temperature for 1 hour. Furthermore, after washing with PBST three times, Goat anti-mouse IgG-HRP (abcam) was added to cause a reaction at room temperature for 1 hour. After washing with PBST three times, SureBlue TMB Microwell Peroxidase Substrate (KPL) was added to cause a reaction at room temperature for 10 minutes while light shielding. An equal volume of a TMB Stop Solution (KPL) was added to stop the reaction, and the absorbance at 450 nm was measured. ELISA with respect to aggregated human αSyn was performed by coating with the aggregated human αSyn (Stress Marq) at 15 ng/well instead of human αSyn in the above-mentioned method.
The antibody-inducing ability of the AJ-human αSyn peptide conjugates (AJ-p54, AJ-p54-KLH, and AJ-DMPVDPDN) produced in Example 1 with respect to human αSyn and aggregated human αSyn in mice was evaluated. Physiological saline or the AJ-human αSyn peptide conjugate (250 μg/mouse) was intramuscularly administered to balb/c mice (females, 6 weeks old, CLEA Japan, Inc.) twice at a 2-week interval using Alum (InvivoGen, 50 μg/mouse) as an adjuvant. Furthermore, KLH-DMPVDPDN (25 μg/mouse) was administered using Alum (InvivoGen, 50 μg/mouse) as an adjuvant. Two weeks after the second administration, serum was recovered to evaluate the antibody titer by ELISA. ELISA was performed by the method described in Example 2.
The antibody-inducing ability of the produced various human αSyn peptide conjugates with respect to human αSyn and aggregated human αSyn in the mice was evaluated by the method described in Example 2 using the antibody titers with respect to human αSyn and aggregated human αSyn of the mouse immune serum. […] In Table 6, the antibody titer of AJ-p242, AJ-p244, AJ-p347, or AJ-p361 is shown with the antibody titer of AJ-p150 as a control being 1 (logarithm). In addition, the antibody titers of AJ-p229, AJ-p237, and AJ-p298 are shown with the antibody titer of AJ-p54 as a control being 1 (logarithm).
The antibody-inducing ability of the AJ-human αSyn peptide conjugates with a modified linker with respect to human αSyn and aggregated human αSyn in the mice was evaluated using the antibody titers with respect to human αSyn and aggregated human αSyn of the mouse immune serum. […] In Table 8, the antibody titers of the AJ-human αSyn peptide conjugates with various modified linkers comprising p54 are shown with the antibody titer of AJ-p54 as a control being 1 (logarithm). In addition, the antibody titers of the AJ-human αSyn peptide conjugates with various modified linkers comprising p150 are shown with the antibody titer of AJ-p150 as a control being 1 (logarithm).

[1] = balb/c mice, i.m. twice at 2-week interval, Alum, AJ conjugates 250 μg/mouse, KLH-DMPVDPDN 25 μg/mouse
[2] = Example 9, N = 4, titer of AJ-p150 or AJ-p54 as control being 1 (logarithm)
[3] = Example 10, modified linker, titer of AJ-p54 or AJ-p150 as control being 1 (logarithm)
[4] = Example 4, balb/c mice, i.m. twice at 2-week interval, Alum, AJ conjugates 250 μg/mouse, KLH-DMPVDPDN 25 μg/mouse

ELKLIFLHRLKRLRKRLKRKXEAYEMPSEE (ELKLIFLHRLKRLRKRLKRK[Ahx]EAYEMPSEE) [AJ-p150, AJ peptide linked to p150 via ε-Acp (X)]
Antibody titer with respect to human αSyn (N = 4 − 6, mean ± standard deviation) (human αSyn; [1]): 2176 ± 1471
Antibody titer with respect to human αSyn, relative to control (human αSyn; [2]): 1
Antibody titer with respect to human αSyn, relative to control (human αSyn; [3]): 1
Antibody titer with respect to aggregated human αSyn (N = 4 − 6, mean ± standard deviation) (aggregated human αSyn; [1]): 576 ± 322
Antibody titer with respect to aggregated human αSyn, relative to control (aggregated human αSyn; [2]): 1
Antibody titer with respect to aggregated human αSyn, relative to control (aggregated human αSyn; [3]): 1

ELKLIFLHRLKRLRKRLKRKϵKKKKKKDQLGKNE [AJ-εKKKK-p54]
Antibody titer with respect to human αSyn, relative to control (human αSyn; [3]): 0.77
Antibody titer with respect to aggregated human αSyn, relative to control (aggregated human αSyn; [3]): 0.90

ELKLIFLHRLKRLRKRLKRKϵKKKKKDQLGKNE [AJ-εKKK-p54]
Antibody titer with respect to human αSyn, relative to control (human αSyn; [3]): 0.74
Antibody titer with respect to aggregated human αSyn, relative to control (aggregated human αSyn; [3]): 0.88

ELKLIFLHRLKRLRKRLKRKXEAAEMPSEEG (ELKLIFLHRLKRLRKRLKRK[Ahx]EAAEMPSEEG) [AJ-p244]
Antibody titer compared with control conjugate (in words) (human αSyn): same level of an antibody titer
Antibody titer with respect to human αSyn, relative to control (human αSyn; [2]): 1.06
Antibody titer with respect to aggregated human αSyn, relative to control (aggregated human αSyn; [2]): 1.10

ELKLIFLHRLKRLRKRLKRKPPDPDPKKDQLGKNE [AJ-PPDPDP-p54]
Antibody titer with respect to human αSyn, relative to control (human αSyn; [3]): 0.89
Antibody titer with respect to aggregated human αSyn, relative to control (aggregated human αSyn; [3]): 0.88

ELKLIFLHRLKRLRKRLKRKXDAYEMPSEEG (ELKLIFLHRLKRLRKRLKRK[Ahx]DAYEMPSEEG) [AJ-p276]
Antibody titer with respect to human αSyn (N = 4 − 6, mean ± standard deviation) (human αSyn; [1]): 1792 ± 512
Antibody titer with respect to aggregated human αSyn (N = 4 − 6, mean ± standard deviation) (aggregated human αSyn; [1]): 896 ± 256

ELKLIFLHRLKRLRKRLKRKEAAAKKKDQLGKNE [AJ-EAAAK-p54]
Antibody titer with respect to human αSyn, relative to control (human αSyn; [3]): 0.96
Antibody titer with respect to aggregated human αSyn, relative to control (aggregated human αSyn; [3]): 0.96

ELKLIFLHRLKRLRKRLKRKXKKDELGKDE (ELKLIFLHRLKRLRKRLKRK[Ahx]KKDELGKDE) [AJ-p298]
Antibody titer compared with control conjugate (in words) (human αSyn): same level of an antibody titer
Antibody titer with respect to human αSyn, relative to control (human αSyn; [2]): 0.82
Antibody titer with respect to aggregated human αSyn, relative to control (aggregated human αSyn; [2]): 0.93

ELKLIFLHRLKRLRKRLKRKαKKKDQLGKNE [AJ-αK-p54]
Antibody titer with respect to human αSyn, relative to control (human αSyn; [3]): 0.99
Antibody titer with respect to aggregated human αSyn, relative to control (aggregated human αSyn; [3]): 0.92

ELKLIFLHRLKRLRKRLKRKXHAFEMPSEEG (ELKLIFLHRLKRLRKRLKRK[Ahx]HAFEMPSEEG) [AJ-p347]
Antibody titer compared with control conjugate (in words) (human αSyn): same level of an antibody titer
Antibody titer with respect to human αSyn, relative to control (human αSyn; [2]): 0.97
Antibody titer with respect to aggregated human αSyn, relative to control (aggregated human αSyn; [2]): 0.97

ELKLIFLHRLKRLRKRLKRKϵKEAYEMPSEE [AJ-εK-p150]
Antibody titer with respect to human αSyn, relative to control (human αSyn; [3]): 0.82
Antibody titer with respect to aggregated human αSyn, relative to control (aggregated human αSyn; [3]): 0.86

ELKLIFLHRLKRLRKRLKRKXDMPVDPDN (ELKLIFLHRLKRLRKRLKRK[Ahx]DMPVDPDN) [AJ-DMPVDPDN, reference compound]
Induction of the antibody to human αSyn (in words) (human αSyn; Example 4, balb/c mice): very weak antibody-inducing effect
Antibody titer with respect to human αSyn (mean ± standard deviation) (human αSyn; [4]): 168 ± 122
Induction of the antibody to aggregated human αSyn (in words) (aggregated human αSyn; Example 4, balb/c mice): very weak antibody-inducing effect
Antibody titer with respect to aggregated human αSyn (mean ± standard deviation) (aggregated human αSyn; [4]): 358 ± 140

ELKLIFLHRLKRLRKRLKRKGKKDQLGKNE [AJ-G-p54]
Antibody titer with respect to human αSyn, relative to control (human αSyn; [3]): 0.89
Antibody titer with respect to aggregated human αSyn, relative to control (aggregated human αSyn; [3]): 0.96

ELKLIFLHRLKRLRKRLKRKEAAAKEAYEMPSEE [AJ-EAAAK-p150]
Antibody titer with respect to human αSyn, relative to control (human αSyn; [3]): 1.14
Antibody titer with respect to aggregated human αSyn, relative to control (aggregated human αSyn; [3]): 1.16

ELKLIFLHRLKRLRKRLKRKGGGGSKKDQLGKNE [AJ-GGGGS-p54]
Antibody titer with respect to human αSyn, relative to control (human αSyn; [3]): 1.05
Antibody titer with respect to aggregated human αSyn, relative to control (aggregated human αSyn; [3]): 1.02

ELKLIFLHRLKRLRKRLKRKXEAFEMPSEEG (ELKLIFLHRLKRLRKRLKRK[Ahx]EAFEMPSEEG) [AJ-p277]
Antibody titer with respect to human αSyn (N = 4 − 6, mean ± standard deviation) (human αSyn; [1]): 1920 ± 1585
Antibody titer with respect to aggregated human αSyn (N = 4 − 6, mean ± standard deviation) (aggregated human αSyn; [1]): 576 ± 322

ELKLIFLHRLKRLRKRLKRKϵKKKEAYEMPSEE [AJ-εKKK-p150]
Antibody titer with respect to human αSyn, relative to control (human αSyn; [3]): 0.79
Antibody titer with respect to aggregated human αSyn, relative to control (aggregated human αSyn; [3]): 0.90

ELKLIFLHRLKRLRKRLKRKXKKDQLGANE (ELKLIFLHRLKRLRKRLKRK[Ahx]KKDQLGANE) [AJ-p142]
Antibody titer with respect to human αSyn (N = 4 − 6, mean ± standard deviation) (human αSyn; [1]): 4693 ± 6431
Antibody titer with respect to aggregated human αSyn (N = 4 − 6, mean ± standard deviation) (aggregated human αSyn; [1]): 576 ± 732
